Experimental data from patent US12233057B2, “Small molecules for inhibiting chemokine activity and/or cancer cells growth” (AlonBio Ltd., priority 2015, dated 2025).
≈ marks a conversion by molar mass, not a printed value.

Columns and labels:
KIT D820E = KIT D820E (Homo sapiens, UniProt P10721, D820E); experiment: LanthaScreen europium kinase binding assay; settings: BKT300 at 78% purity
Procedure: (§1) In order to further characterize the effect of BKT300 on cell signaling, kinase profiling of BKT300 (at 78% purity) was performed (by the Life Technologies SelectScreen® Biochemical Profiling Lab) using a LanthaScreen® europium kinase binding assay to screen 440 kinases.
(§2) The principle of the LanthaScreen® assay is depicted in FIG. 13. Binding of an Alexa Fluor® conjugate or “tracer” to a kinase is detected by addition of a europium (Eu)-labeled anti-tag antibody. Binding of the tracer and antibody to a kinase results in a high degree of FRET, whereas displacement of the tracer with a kinase inhibitor results in a loss of FRET. The kinase tracers are based on ATP-competitive kinase inhibitors, making them suitable for detection of any compounds that bind to the ATP site. Inhibitors that bind the ATP site include both Type I kinase inhibitors, which bind solely to the ATP site, and Type II inhibitors (e.g., imatinib, sorafenib, BIRB-796), which bind to both the ATP site and a second site often referred to as the allosteric site.

PIK3CA = PIK3CA (Homo sapiens, UniProt P42336); experiment: LanthaScreen europium kinase binding assay; settings: BKT300 at 78% purity
Procedure: as §1, §2

CLK4 = CLK4 (Homo sapiens, UniProt Q9HAZ1); experiment: LanthaScreen europium kinase binding assay; settings: BKT300 at 78% purity
Procedure: as §1, §2

TGFBR2 = TGFBR2 (Homo sapiens, UniProt P37173); experiment: LanthaScreen europium kinase binding assay; settings: BKT300 at 78% purity
Procedure: as §1, §2

CDK8/cyclin C = CDK8/cyclin C (Homo sapiens, UniProt P49336); experiment: LanthaScreen europium kinase binding assay; settings: BKT300 at 78% purity
Procedure: as §1, §2

MYLK (MLCK) = MYLK (MLCK) (Homo sapiens, UniProt Q15746); experiment: LanthaScreen europium kinase binding assay; settings: BKT300 at 78% purity
Procedure: as §1, §2

GRK4 = GRK4 (Homo sapiens, UniProt P32298); experiment: LanthaScreen europium kinase binding assay; settings: BKT300 at 78% purity
Procedure: as §1, §2

STK38L (NDR2) = STK38L (NDR2) (Homo sapiens, UniProt Q9Y2H1); experiment: LanthaScreen europium kinase binding assay; settings: BKT300 at 78% purity
Procedure: as §1, §2

CDK1/cyclin A2 = CDK1/cyclin A2 (Homo sapiens, UniProt P06493); experiment: LanthaScreen europium kinase binding assay; settings: BKT300 at 78% purity
Procedure: as §1, §2

MAP4K1 (HPK1) = MAP4K1 (HPK1) (Homo sapiens, UniProt Q92918); experiment: LanthaScreen europium kinase binding assay; settings: BKT300 at 78% purity
Procedure: as §1, §2

DYRK3 = DYRK3 (Homo sapiens, UniProt O43781); experiment: LanthaScreen europium kinase binding assay; settings: BKT300 at 78% purity
Procedure: as §1, §2

MAP4K2 (GCK) = MAP4K2 (GCK) (Homo sapiens, UniProt Q12851); experiment: LanthaScreen europium kinase binding assay; settings: BKT300 at 78% purity
Procedure: as §1, §2

MAP4K4 (HGK) = MAP4K4 (HGK) (Homo sapiens, UniProt O95819); experiment: LanthaScreen europium kinase binding assay; settings: BKT300 at 78% purity
Procedure: as §1, §2

ICK = ICK (Homo sapiens, UniProt Q9UPZ9); experiment: LanthaScreen europium kinase binding assay; settings: BKT300 at 78% purity
Procedure: as §1, §2

SRC N1 = SRC N1 (Homo sapiens, UniProt P12931); experiment: LanthaScreen europium kinase binding assay; settings: BKT300 at 78% purity
Procedure: as §1, §2

EPHA8 = EPHA8 (Homo sapiens, UniProt P29322); experiment: LanthaScreen europium kinase binding assay; settings: BKT300 at 78% purity
Procedure: as §1, §2

GRK5 = GRK5 (Homo sapiens, UniProt P34947); experiment: LanthaScreen europium kinase binding assay; settings: BKT300 at 78% purity
Procedure: as §1, §2

DAPK2 = DAPK2 (Homo sapiens, UniProt Q9UIK4); experiment: LanthaScreen europium kinase binding assay; settings: BKT300 at 78% purity
Procedure: as §1, §2

CDK11 (Inactive) = CDK11 (Inactive) (Homo sapiens, UniProt Q9BWU1); experiment: LanthaScreen europium kinase binding assay; settings: BKT300 at 78% purity
Procedure: as §1, §2

SGK2 = SGK2 (Homo sapiens, UniProt Q9HBY8); experiment: LanthaScreen europium kinase binding assay; settings: BKT300 at 78% purity
Procedure: as §1, §2

NUAK2 = NUAK2 (Homo sapiens, UniProt Q9H093); experiment: LanthaScreen europium kinase binding assay; settings: BKT300 at 78% purity
Procedure: as §1, §2

PAK7 (KIAA1264) = PAK7 (KIAA1264) (Homo sapiens, UniProt Q9P286); experiment: LanthaScreen europium kinase binding assay; settings: BKT300 at 78% purity
Procedure: as §1, §2

BMPR1A (ALK3) = BMPR1A (ALK3) (Homo sapiens, UniProt P36894); experiment: LanthaScreen europium kinase binding assay; settings: BKT300 at 78% purity
Procedure: as §1, §2

MAPK10 (JNK3) = MAPK10 (JNK3) (Homo sapiens, UniProt P53779); experiment: LanthaScreen europium kinase binding assay; settings: BKT300 at 78% purity
Procedure: as §1, §2

STK17A (DRAK1) = STK17A (DRAK1) (Homo sapiens, UniProt Q9UEE5); experiment: LanthaScreen europium kinase binding assay; settings: BKT300 at 78% purity
Procedure: as §1, §2

MELK = MELK (Homo sapiens, UniProt Q14680); experiment: LanthaScreen europium kinase binding assay
Procedure: as §1, §2

[1] = test system: Raji human lymphoma cells; experiment: Cancer cell viability assay, propidium iodide staining (FACS); format: cell-based; settings: BKT300 at 78% purity
Procedure: (§3) The cancer cells were incubated in cell medium with 1% fetal calf serum (FCS) at a concentration of 2×10^5 cells/well at a final volume of 250 μl in 96-well plate. The tested small molecule was added to the cells at the indicated concentrations. The cells were incubated for 24 hours and the number of dead and viable cells was then evaluated by fluorescence-activated cell sorting (FACS), using propidium iodide (PI) staining. The IC50 of the small molecule-induced cell death was determined using GraphPad Prism software.
(§4) The in vitro effect of BKT300 (at 78% purity) on cancer cell viability was further evaluated using a variety of additional cancer cell lines, using procedures as described hereinabove with respect to MV4-11 cells.

[2] = test system: Bjab human lymphoma cells; experiment: as above; format: cell-based; settings: BKT300 at 78% purity, 8.5 μg/ml
Procedure: as §3, §4

[3] = test system: Jurkat human acute lymphoblastic leukemia cells; experiment: as above; format: cell-based; settings: BKT300 at 78% purity, 24 hours
Procedure: as §3, §4

[4] = test system: RPMI human multiple myeloma cells; experiment: as above; format: cell-based; settings: BKT300 at 78% purity, 24 hours
Procedure: as §3, §4

[5] = test system: H460 human large cell lung cancer cells; experiment: as above; format: cell-based; settings: BKT300 at 78% purity, 10 μg/ml
Procedure: as §3, §4

[6] = test system: H345 human small cell lung cancer cells; experiment: as above; format: cell-based; settings: BKT300 at 78% purity, 8.5 μg/ml
Procedure: as §3, §4

Sequence of MELK (Q14680 whole entry): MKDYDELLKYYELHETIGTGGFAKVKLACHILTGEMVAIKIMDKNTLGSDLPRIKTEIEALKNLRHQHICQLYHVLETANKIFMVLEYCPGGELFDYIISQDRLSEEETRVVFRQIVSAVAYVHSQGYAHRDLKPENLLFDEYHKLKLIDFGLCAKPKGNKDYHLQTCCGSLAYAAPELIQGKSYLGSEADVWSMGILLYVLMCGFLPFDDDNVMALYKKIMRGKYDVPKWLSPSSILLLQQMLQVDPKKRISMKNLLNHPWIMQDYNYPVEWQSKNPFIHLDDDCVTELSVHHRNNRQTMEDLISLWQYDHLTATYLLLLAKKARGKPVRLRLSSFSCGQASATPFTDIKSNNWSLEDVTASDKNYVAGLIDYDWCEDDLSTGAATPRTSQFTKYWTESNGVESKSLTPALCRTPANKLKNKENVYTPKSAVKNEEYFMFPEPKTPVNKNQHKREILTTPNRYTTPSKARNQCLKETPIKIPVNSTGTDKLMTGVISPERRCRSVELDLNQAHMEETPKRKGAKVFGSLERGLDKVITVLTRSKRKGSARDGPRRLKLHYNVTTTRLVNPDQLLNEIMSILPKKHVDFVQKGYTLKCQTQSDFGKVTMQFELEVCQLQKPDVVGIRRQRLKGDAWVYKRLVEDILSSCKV
Sequence of BMPR1A (ALK3) (P36894 24-532): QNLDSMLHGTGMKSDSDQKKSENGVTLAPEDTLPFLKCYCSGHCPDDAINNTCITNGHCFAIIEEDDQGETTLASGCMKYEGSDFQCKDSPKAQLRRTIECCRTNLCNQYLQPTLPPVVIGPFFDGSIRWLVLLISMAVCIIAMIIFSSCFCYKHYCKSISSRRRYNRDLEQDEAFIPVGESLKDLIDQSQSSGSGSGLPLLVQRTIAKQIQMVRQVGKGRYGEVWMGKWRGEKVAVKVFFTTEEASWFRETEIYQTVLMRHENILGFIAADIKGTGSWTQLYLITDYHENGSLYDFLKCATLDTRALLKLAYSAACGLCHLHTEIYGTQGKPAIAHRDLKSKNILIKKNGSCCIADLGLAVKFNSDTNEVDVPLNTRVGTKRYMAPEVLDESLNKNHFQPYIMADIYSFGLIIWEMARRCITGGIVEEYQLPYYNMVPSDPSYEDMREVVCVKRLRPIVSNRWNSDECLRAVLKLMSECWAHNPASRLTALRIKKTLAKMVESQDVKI
Sequence of TGFBR2 (P37173 23-567): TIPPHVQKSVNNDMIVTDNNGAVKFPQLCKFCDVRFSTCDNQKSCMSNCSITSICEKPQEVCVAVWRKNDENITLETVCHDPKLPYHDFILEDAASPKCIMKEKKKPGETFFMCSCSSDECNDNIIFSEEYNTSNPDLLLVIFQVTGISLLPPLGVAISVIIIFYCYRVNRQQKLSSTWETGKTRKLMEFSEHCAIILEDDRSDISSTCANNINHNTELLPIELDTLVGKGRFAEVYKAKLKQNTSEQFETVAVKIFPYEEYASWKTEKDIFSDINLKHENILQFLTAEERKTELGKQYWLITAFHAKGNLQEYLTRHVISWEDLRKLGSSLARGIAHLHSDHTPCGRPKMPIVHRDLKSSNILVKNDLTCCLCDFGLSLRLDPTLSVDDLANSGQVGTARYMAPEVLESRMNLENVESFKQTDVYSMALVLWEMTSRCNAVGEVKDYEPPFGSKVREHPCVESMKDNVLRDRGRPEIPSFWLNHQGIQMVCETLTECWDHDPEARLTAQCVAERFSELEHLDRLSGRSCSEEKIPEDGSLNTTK
Sequence of MAP4K1 (HPK1) (Q92918 whole entry): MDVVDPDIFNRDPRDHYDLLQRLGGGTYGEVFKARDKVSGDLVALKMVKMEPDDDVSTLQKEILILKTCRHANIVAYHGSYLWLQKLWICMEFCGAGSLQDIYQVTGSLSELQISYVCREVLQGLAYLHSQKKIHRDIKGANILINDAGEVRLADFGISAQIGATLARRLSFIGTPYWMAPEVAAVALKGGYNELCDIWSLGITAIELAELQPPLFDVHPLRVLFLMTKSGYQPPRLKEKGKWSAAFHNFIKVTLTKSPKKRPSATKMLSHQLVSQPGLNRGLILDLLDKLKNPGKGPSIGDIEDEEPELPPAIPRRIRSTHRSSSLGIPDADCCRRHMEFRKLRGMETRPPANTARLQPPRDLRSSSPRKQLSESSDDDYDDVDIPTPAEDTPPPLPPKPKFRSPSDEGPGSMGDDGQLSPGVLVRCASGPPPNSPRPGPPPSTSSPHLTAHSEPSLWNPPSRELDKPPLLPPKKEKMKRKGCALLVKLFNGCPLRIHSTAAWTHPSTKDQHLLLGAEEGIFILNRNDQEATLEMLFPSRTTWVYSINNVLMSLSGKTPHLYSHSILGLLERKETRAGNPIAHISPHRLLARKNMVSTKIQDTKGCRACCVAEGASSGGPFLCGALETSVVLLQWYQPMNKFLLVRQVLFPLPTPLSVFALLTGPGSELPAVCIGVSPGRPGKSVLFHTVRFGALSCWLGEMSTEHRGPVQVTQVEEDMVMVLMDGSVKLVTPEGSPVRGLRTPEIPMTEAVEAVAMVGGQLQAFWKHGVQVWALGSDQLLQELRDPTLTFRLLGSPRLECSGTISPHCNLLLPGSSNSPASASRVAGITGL
Sequence of DAPK2 (Q9UIK4 whole entry): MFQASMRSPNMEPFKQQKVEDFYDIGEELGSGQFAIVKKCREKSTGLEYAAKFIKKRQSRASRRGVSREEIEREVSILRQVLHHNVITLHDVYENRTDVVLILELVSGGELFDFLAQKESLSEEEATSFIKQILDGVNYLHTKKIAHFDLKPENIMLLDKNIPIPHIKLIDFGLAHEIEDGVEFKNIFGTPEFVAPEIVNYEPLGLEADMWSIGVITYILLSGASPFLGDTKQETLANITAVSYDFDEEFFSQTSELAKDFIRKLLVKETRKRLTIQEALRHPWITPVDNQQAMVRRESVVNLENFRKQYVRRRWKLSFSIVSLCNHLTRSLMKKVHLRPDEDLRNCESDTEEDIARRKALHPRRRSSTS
Sequence of GRK5 (P34947 whole entry): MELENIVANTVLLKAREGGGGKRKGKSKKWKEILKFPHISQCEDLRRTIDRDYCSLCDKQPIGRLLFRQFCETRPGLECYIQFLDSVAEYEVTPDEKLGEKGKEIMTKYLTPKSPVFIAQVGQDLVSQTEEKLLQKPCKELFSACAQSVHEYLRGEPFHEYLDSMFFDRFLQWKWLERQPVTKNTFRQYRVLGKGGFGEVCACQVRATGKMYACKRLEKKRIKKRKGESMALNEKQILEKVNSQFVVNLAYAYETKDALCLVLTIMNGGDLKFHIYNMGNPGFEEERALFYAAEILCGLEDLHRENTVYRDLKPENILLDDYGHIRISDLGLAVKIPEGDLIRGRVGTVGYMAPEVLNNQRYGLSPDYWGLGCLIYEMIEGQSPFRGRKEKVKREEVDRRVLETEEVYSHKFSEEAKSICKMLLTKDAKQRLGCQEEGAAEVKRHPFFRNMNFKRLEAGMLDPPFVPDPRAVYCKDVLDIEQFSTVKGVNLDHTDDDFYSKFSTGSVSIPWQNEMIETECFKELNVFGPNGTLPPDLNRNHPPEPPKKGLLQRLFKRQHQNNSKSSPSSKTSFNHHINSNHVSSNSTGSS
Sequence of STK17A (DRAK1) (Q9UEE5 whole entry): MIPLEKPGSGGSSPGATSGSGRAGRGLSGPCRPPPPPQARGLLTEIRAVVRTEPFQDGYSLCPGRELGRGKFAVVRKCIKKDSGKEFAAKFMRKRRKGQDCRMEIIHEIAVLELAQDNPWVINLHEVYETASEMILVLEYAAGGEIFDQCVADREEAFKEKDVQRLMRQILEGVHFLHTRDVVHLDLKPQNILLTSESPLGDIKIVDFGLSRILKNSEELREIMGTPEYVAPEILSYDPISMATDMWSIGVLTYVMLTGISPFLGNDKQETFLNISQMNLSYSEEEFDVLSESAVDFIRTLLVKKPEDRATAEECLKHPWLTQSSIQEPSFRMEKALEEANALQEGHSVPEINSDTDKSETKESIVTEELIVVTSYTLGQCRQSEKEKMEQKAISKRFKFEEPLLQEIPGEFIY
Sequence of MAPK10 (JNK3) (P53779 whole entry): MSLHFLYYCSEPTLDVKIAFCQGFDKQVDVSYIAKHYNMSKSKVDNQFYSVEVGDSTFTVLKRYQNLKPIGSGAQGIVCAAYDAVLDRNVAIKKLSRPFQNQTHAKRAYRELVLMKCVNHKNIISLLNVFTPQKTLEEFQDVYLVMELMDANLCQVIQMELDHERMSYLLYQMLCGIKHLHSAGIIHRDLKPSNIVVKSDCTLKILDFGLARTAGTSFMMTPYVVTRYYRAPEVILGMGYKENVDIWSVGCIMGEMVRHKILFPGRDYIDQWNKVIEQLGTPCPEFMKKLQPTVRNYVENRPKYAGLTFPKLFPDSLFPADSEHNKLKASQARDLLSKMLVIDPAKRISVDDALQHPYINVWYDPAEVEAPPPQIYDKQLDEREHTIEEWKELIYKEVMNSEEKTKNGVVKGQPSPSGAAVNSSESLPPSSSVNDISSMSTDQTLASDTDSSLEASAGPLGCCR
Sequence of NUAK2 (Q9H093 whole entry): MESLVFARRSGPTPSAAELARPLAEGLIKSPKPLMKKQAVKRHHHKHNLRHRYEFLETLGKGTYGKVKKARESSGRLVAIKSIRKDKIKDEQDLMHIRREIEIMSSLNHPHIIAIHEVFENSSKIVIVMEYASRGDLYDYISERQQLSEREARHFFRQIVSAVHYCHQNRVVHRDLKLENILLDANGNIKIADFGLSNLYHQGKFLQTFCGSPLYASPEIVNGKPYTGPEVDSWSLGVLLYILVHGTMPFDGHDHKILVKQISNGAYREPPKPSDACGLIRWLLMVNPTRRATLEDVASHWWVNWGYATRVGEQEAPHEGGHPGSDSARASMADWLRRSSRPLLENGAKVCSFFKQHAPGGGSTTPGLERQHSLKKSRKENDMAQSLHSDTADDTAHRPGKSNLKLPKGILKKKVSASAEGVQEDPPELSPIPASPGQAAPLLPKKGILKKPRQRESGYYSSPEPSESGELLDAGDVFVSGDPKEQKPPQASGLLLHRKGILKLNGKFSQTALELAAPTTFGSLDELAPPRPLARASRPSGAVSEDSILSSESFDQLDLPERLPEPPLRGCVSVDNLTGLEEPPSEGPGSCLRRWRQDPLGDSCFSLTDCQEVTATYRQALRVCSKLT

## CCCCCc1cc2cc(O)cc(Oc3c(O)cc(O)cc3CCCCC)c2c(=O)o1 [BKT300]
KIT D820E
  % Inhibition: 42%
PIK3CA
  % Inhibition: 64%
CLK4
  % Inhibition: 73%
TGFBR2
  % Inhibition: 43%
CDK8/cyclin C
  % Inhibition: 64%
MYLK (MLCK)
  % Inhibition: 63%
GRK4
  % Inhibition: 63%
STK38L (NDR2)
  % Inhibition: 45%
CDK1/cyclin A2
  % Inhibition: 45%
MAP4K1 (HPK1)
  % Inhibition: 45%
DYRK3
  % Inhibition: 47%
MAP4K2 (GCK)
  % Inhibition: 48%
MAP4K4 (HGK)
  % Inhibition: 40%
ICK
  % Inhibition: 41%
SRC N1
  % Inhibition: 41%
EPHA8
  % Inhibition: 50%
GRK5
  % Inhibition: 65%
DAPK2
  % Inhibition: 65%
CDK11 (Inactive)
  % Inhibition: 57%
SGK2
  % Inhibition: 43%
NUAK2
  % Inhibition: 89%
PAK7 (KIAA1264)
  % Inhibition: 40%
BMPR1A (ALK3)
  % Inhibition: 58%
MAPK10 (JNK3)
  % Inhibition: 49%
STK17A (DRAK1)
  % Inhibition: 48%
MELK; BKT300 at 78% purity
  % Inhibition: 41%
MELK; based on the kinase screening assay summarized in Table 2, relatively low
  Affinity of BKT300 to the kinase: few tens
[1]; 4.25 μg/ml
  Cell death of Raji cells: slight cell death
[1]; 8.5 μg/ml
  Cell death of Raji cells: about 30%
[2]
  Cell death of Bjab cells: about 30%
[3]
  Concentration at which cell death of Jurkat cells is induced (as low as; lowest tested): ≤ 2 µg/mL
[3]; Homo sapiens, Jurkat, read-out: IC50 for induced death of Jurkat cells
  IC50: 3.5 µg/mL (≈ 8.21 µM)
[4]
  Concentration at which cell death of RPMI cells is induced (as low as; lowest tested): ≤ 2 µg/mL
[5]
  Cell death of H460 cells: about 80%
[6]
  Cell death of H345 cells: over 90%
